Our source for the IC50 and MUC5AC production values is patent publication US11407771B2 (priority 2018, dated 2022).

Read-outs that look alike come from different tables or passages of the source.

The target of experiment [1] is T1, MAPK13 (Homo sapiens (Human), UniProt O15264). The note with it: read-out: MAPK13 inhibition.
Experiment [2] concerns MUC5AC mucin formation in IL-13-stimulated hTEC.
The target of experiment [3] is T1, MAPK13. In words: biochemical.

T1 sequence (O15264 whole entry): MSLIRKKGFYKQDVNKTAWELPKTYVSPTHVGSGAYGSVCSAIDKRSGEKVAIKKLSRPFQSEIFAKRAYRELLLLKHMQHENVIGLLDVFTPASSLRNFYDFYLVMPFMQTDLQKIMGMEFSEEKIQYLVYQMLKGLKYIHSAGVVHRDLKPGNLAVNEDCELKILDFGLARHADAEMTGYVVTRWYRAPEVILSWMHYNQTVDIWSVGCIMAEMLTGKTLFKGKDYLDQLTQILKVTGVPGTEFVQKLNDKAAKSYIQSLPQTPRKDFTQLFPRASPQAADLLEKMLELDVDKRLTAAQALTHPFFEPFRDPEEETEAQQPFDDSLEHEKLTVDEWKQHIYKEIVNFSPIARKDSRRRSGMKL

Take `CCOC(=O)Nc1cc(CCc2cnc(NC(=O)Nc3cc(C(C)(C)C)n[nH]3)s2)ccn1` [Compound 354, [4-(2-{2-[3-(5-tert-Butyl-2H-pyrazol-3-yl)-ureido]-thiazol-5-yl}-ethyl)-pyridin-2-yl]-carbamic acid ethyl ester]: in experiment [1], the IC50 was under 250 nM. Besides, the MUC5AC production entry in experiment [2] is on record as “marked attenuation”. On to `CC(=O)Nc1cc(Oc2ccc(NC(=O)Nc3cc(C4CC4)ccc3F)c(F)c2)ccn1` [Compound 397, N-(4-{4-[3-(5-Cyclopropyl-2-fluoro-pheny)-ureido]-3-fluoro-phenoxy}-pyridin-2-yl)-actamde], for which, in experiment [1], the IC50 is under 250 nM. The MUC5AC production result in experiment [2] is “marked attenuation”.

Take `CC(=O)Nc1cc(CCc2cnc(NC(=O)Nc3cc(C4CC4)ccc3F)s2)ccn1` [Compound 398, N-[4-(2-{2-[3-(5-Cyclopropyl-2-fluoro-phenyl)-ureido]-thiazol-5-yl}-ethyl)-pyridin-2-yl]-acetamide]: in experiment [1], the IC50 is under 250 nM. Further, in experiment [2], the MUC5AC production result is “marked attenuation”.

Consider `O=c1ncn2nc(Sc3ccc(F)cc3F)ccc2c1-c1c(Cl)cccc1Cl` [Compound 401, VX-745, reference compound], for which the MUC5AC production entry in experiment [2] is “no significant inhibition”. `CC(=O)Nc1cc(COc2ccc(NC(=O)Nc3cc(C(C)(C)C)nn3CC3CC3)c(F)c2)ccn1` [Compound 413, N-(4-{4-[3-(5-tert-Butyl-2-cyclopropylmethyl-2H-pyrazol-3-yl)-ureido]-3-fluoro-phenoxymethyl}-pyridin-2-yl)-acetamide] showed an IC50 in experiment [3] of 250 to 1000 nM. Same read-out and setting: to `CC(=O)Nc1cc(COc2ccc(NC(=O)Nc3cc(C(C)(C)C)ccc3Cl)c(F)c2)ccn1` [Compound 414, N-(4-{4-[3-(5-tert-Butyl-2-chloro-phenyl)-ureido]-3-fluoro-phenoxymethyl}-pyridin-2-yl)-acetamide] belongs 250 to 1000 nM.
